Reference: publication doi:10.1101/2025.09.30.679600, “Expansion of DNA-Encoded Library Hits Using Generative Chemistry and Ultra-Large Compound Catalogs” (bioRxiv, 2025)

target: T1, 53BP1 tandem Tudor domain (TTD) (Homo sapiens, UniProt Q12888); experiment: 53BP1 TR-FRET displacement assay; assay type: binding; settings: mean ± SD of at least three replicates
T1 construct: DEL screens targeting the tandem Tudor domain (TTD) of 53BP1; made in house
Excerpt: In this work, we test the hypothesis that initializing a structure-based generative AI workflow with validated DEL screening data can rapidly identify novel, potent, and more drug-like compounds from an ultra-large virtual library, outperforming traditional hit-picking strategies. To do so, we present a DEL-driven, integrated virtual screening workflow that combines the HIDDEN GEM platform with the multi-billion-compound Enamine REAL Space (Figure 1). Using data from our recently published DEL screens targeting the tandem Tudor domain (TTD) of 53BP1,[8],[16],[27] we biased our generative structure-guided ML model to identify novel, commercially available compounds from the Enamine REAL Space. All purchased and off-DNA synthesized compounds were experimentally tested using a developed time-resolved fluorescence resonance energy transfer (TR-FRET) displacement assay. This workflow provides a rapid, cost-effective strategy for academic labs and small biotech companies to accelerate hit discovery using focused DEL libraries and to expand beyond the screened chemical space, which is particularly important for smaller-sized DELs.
Reagents, protein expression/purification, DEL production and screening, and TR-FRET screening protocols were previously reported.[16],[27] […]
[Compound], µM [Compound], µM [Compound], µM
[Compound], µM [Compound], µM
Figure S2. 53BP1 TR-FRET displacement assay dose-response curves for compounds identified from
HIDDEN GEM. Each data point represents the mean of three replicates (n=3), with error bars indicating standard
deviation. Dose-response curves were fitted using a four-parameter Hill equation. […]

T1 sequence (Q12888 1484-1603 limits assumed): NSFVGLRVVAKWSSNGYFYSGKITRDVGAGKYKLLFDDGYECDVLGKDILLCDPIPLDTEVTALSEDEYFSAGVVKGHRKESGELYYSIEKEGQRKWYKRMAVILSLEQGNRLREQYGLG

Compound | IC50 [µM]
CN1CCN(c2ccccc2NC(=O)c2cc3ccccc3[nH]2)CC1 [UNC10413788A] | 22 ± 3.6
CN1CCC(Nc2ccccc2NC(=O)c2cccc(F)c2)CC1 [UNC10413800A] | 54 ± 8.5
COc1ccc(C(CNC2=NS(=O)(=O)c3ccccc32)N2CCCC2)cc1 (centres unmarked) [UNC10413807A] | 43 ± 0.44

Now from value to compound:

IC50 [µM] | Compound
58 ± 10 | CCN1CCN(c2ccccc2NC(=O)c2cc(O)c3ccccc3c2)CC1 [UNC10414641A]
34 ± 3 | Cc1ccc(C(CNC2=NS(=O)(=O)c3ccccc32)N2CCCC2)cc1 (centres unmarked) [UNC10414645A]
